Measurements reported in PubChem BioAssay (NCI).
Where “and” joins values, the source holds several entries; their conditions need not be identical. Equal values may be shown once.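 Growth conditions: 96-well plates. Treatment: test compound, 48 hours, 5 concentrations. Analysis: linear interpolation between bracketing concentrations; unreached endpoints set to highest concentration. GI50 marks 50% less growth. Definition used: TGI = concentration required for complete inhibition of growth.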

Assays:
Assay in all cases: NCI-60 cell line screen, 48 h
A549 NSCLC = tested on: A549 NSCLC
SF-539 CNS = tested on: SF-539 CNS
MALME-3M melanoma = tested on: MALME-3M melanoma
A498 renal = tested on: A498 renal
LOX IMVI melanoma = tested on: LOX IMVI melanoma
786-0 renal = tested on: 786-0 renal
KM12 colon = tested on: KM12 colon
T-47D breast = tested on: T-47D breast
NCI/ADR-RES ovarian = tested on: NCI/ADR-RES ovarian
MDA-MB-231 breast = tested on: MDA-MB-231 breast

Structure (SMILES) | GI50 (A549 NSCLC) | TGI (A549 NSCLC) | GI50 (SF-539 CNS) | TGI (SF-539 CNS) | GI50 (MALME-3M melanoma) | TGI (MALME-3M melanoma) | GI50 (A498 renal) | TGI (A498 renal) | GI50 (LOX IMVI melanoma) | TGI (LOX IMVI melanoma) | GI50 (786-0 renal) | TGI (786-0 renal) | GI50 (KM12 colon) | TGI (KM12 colon) | GI50 (T-47D breast) | TGI (T-47D breast) | GI50 (NCI/ADR-RES ovarian) | TGI (NCI/ADR-RES ovarian) | GI50 (MDA-MB-231 breast) | TGI (MDA-MB-231 breast)
CCN(CC)CCCNCc1cc(-c2ccccc2)nc2ccccc12 | 81.6 µM | > 100 µM | 3.24 µM | 8.49 µM | 7.2 µM | 24.3 µM | 12.3 µM | 41.3 µM | 2.32 µM | 11.4 µM | 11.1 µM | 28.3 µM | 15 µM | > 100 µM | 10.2 µM | 59.6 µM | 2.35 µM | 6.51 µM | 3.99 µM | 24 µM
COc1cc(-c2cc(O)c(-c3ccc4ccccc4n3)c(=O)[nH]2)cc(OC)c1OC | – | > 95 µM | – | 74.5 µM | – | > 54.8 µM | – | > 100 µM | – | > 53.8 µM | – | > 69.6 µM | – | > 100 µM | – | > 100 µM | – | > 100 µM | – | > 70.2 µM
CCOC(=O)c1cc2c(cc1Cl)SC(N(c1ccc(OC)cc1)S(=O)(=O)c1ccc(Cl)cc1)=NS2(=O)=O | 33.4 µM | > 100 µM | 15.1 µM | 31.2 µM | 28.1 µM | > 100 µM | 80.8 µM | > 100 µM | 18.7 µM | 38.3 µM | 62.2 µM | > 100 µM | 46.7 µM | > 100 µM | 12.1 µM | 36.1 µM | 31.5 µM | 88.6 µM | 47 µM | > 100 µM
CNC(=O)c1ccccc1Nc1nc(Nc2cc(OC)c(OC)c(OC)c2)ncc1Br | 0.0354 µM | 17.5 µM | 0.0313 µM | 0.263 µM | 0.0266 µM | 1.79 µM | < 0.0109 µM | 0.0368 µM | 0.0183 µM | 0.0917 µM | 0.0234 µM | 1.85 µM | < 0.0136 µM | 4.98 µM | 1.07 µM | 6.71 µM | 0.0496 µM | 1.81 µM | 0.033 µM | 0.263 µM
Cc1nc(-c2cn3c(n2)-c2ccc(-c4cnn(C(C)(C)C(N)=O)c4)cc2OCC3)n(C(C)C)n1 | 0.332 µM and 0.392 µM | 16.8 µM and > 10 µM | 0.654 µM and 0.493 µM | 6.13 µM and 5.83 µM | – | 3.12 µM and > 10 µM | 0.143 µM and 0.274 µM | 1.15 µM and 1.67 µM | 0.279 µM and 0.74 µM | 17.7 µM and > 10 µM | 1.05 µM and 0.747 µM | > 100 µM | 3.48 µM and 3 µM | 17.2 µM and > 10 µM | < 0.0384 µM and 0.00372 µM | – | 8.25 µM and > 7.21 µM | > 83.1 µM | 6.44 µM and 4.11 µM | 35.9 µM and > 10 µM
O=c1[nH]c(=S)[nH]c2c1CN(CCCN1CCOCC1)CN2 | – | > 100 µM | – | 58.2 µM | – | 42.3 µM | – | > 100 µM | – | 62.4 µM | – | > 100 µM | – | 95.9 µM | – | > 100 µM | – | > 100 µM | – | 66.4 µM
Nc1nnnn1CCO | – | > 100 µM | – | > 100 µM | – | > 100 µM | – | > 100 µM | – | > 100 µM | – | > 100 µM | – | > 100 µM | – | > 100 µM | – | > 100 µM | – | > 100 µM
Oc1ccc(C(c2ccc(O)cc2)c2ccc(O)cc2)cc1 | – | > 100 µM | – | 46 µM | – | 44 µM | – | 34.5 µM | – | 38.4 µM | – | 34.8 µM | – | 32.4 µM | – | 41 µM | – | 44.2 µM | – | 41.8 µM
